Source: PubChem BioAssay (NCI)
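Compound exposure: 48 hours, 5 concentrations, 96-well plates. GI50 is the concentration that inhibits growth by half. TGI is the concentration that stops growth completely.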

What was measured:
Assay in all cases: growth of human tumour cells (NCI), 48 h
[1] = tested on: HT29 colon
[2] = tested on: IGROV1 ovarian
[3] = tested on: T-47D breast
[4] = tested on: A549 NSCLC
[5] = tested on: NCI-H460 lung
[6] = tested on: RXF 393 renal
[7] = tested on: HCC-2998 colon
[8] = tested on: HOP-62 NSCLC
[9] = tested on: MALME-3M melanoma
[10] = tested on: ACHN renal
[11] = tested on: SK-MEL-5 melanoma
[12] = tested on: 786-0 renal
[13] = tested on: PC-3 prostate
[14] = tested on: SF-268 CNS
[15] = tested on: A498 renal
[16] = tested on: MDA-MB-435
[17] = tested on: M14 melanoma
[18] = tested on: OVCAR-8 ovarian
[19] = tested on: COLO 205 colon
[20] = tested on: NCI/ADR-RES ovarian
[21] = tested on: OVCAR-3 ovarian
[22] = tested on: SNB-75 CNS
[23] = tested on: MOLT-4 leukemia
[24] = tested on: SW-620 colon
[25] = tested on: NCI-H226 lung
[26] = tested on: KM12 colon
[27] = tested on: SR leukemia
[28] = tested on: OVCAR-5 ovarian
[29] = tested on: NCI-H522 lung
[30] = tested on: HOP-92 NSCLC
[31] = tested on: CAKI-1 renal
[32] = tested on: CCRF-CEM leukemia
[33] = tested on: HS 578T breast
[34] = tested on: RPMI-8226 leukemia
[35] = tested on: HCT-116 colon
[36] = tested on: SNB-19 CNS
[37] = tested on: OVCAR-4 ovarian
[38] = tested on: SK-OV-3 ovarian
[39] = tested on: K-562 leukemia
[40] = tested on: SN12C renal
[41] = tested on: TK-10 renal
[42] = tested on: LOX IMVI melanoma
[43] = tested on: UACC-62 melanoma
[44] = tested on: SK-MEL-28 melanoma
[45] = tested on: UO-31 renal
[46] = tested on: MDA-MB-231 breast
[47] = tested on: SF-539 CNS
[48] = tested on: SK-MEL-2 melanoma
[49] = tested on: DU-145 prostate
[50] = tested on: UACC-257 melanoma
[51] = tested on: SF-295 CNS
[52] = tested on: NCI-H23 lung
[53] = tested on: BT-549 breast
[54] = tested on: EKVX NSCLC
[55] = tested on: HCT-15 colon
[56] = tested on: U251 CNS
[57] = tested on: MCF7 breast
[58] = tested on: HL-60(TB) leukemia

## C=C1C(=O)O[C@H]2[C@H]1CC/C(COC(=O)NCc1c[nH]c3ccc(Br)cc13)=C\CC[C@@]1(C)O[C@@H]21
[1]
  GI50: 0.794 µM
  TGI: 2.26 µM
[2]
  GI50: 1.45 µM
  TGI: 2.97 µM
[3]
  GI50: 1.24 µM
  TGI: 2.99 µM
[4]
  GI50: 1.75 µM
  TGI: 3.65 µM
[5]
  GI50: 1.88 µM
  TGI: 4.04 µM
[6]
  GI50: 1.25 µM
  TGI: 2.59 µM
[7]
  GI50: 1.79 µM
  TGI: 3.3 µM
[8]
  GI50: 1.52 µM
  TGI: 3.35 µM
[9]
  GI50: 1.84 µM
  TGI: 3.53 µM
[10]
  GI50: 1.28 µM
  TGI: 2.58 µM
[11]
  GI50: 1.63 µM
  TGI: 2.99 µM
[12]
  GI50: 0.841 µM
  TGI: 2.36 µM
[13]
  GI50: 1.51 µM
  TGI: 3.12 µM
[14]
  GI50: 1.61 µM
  TGI: 3.41 µM
[15]
  GI50: 1.67 µM
  TGI: 3.25 µM
[16]
  GI50: 1.12 µM
  TGI: 2.55 µM
[17]
  GI50: 1.35 µM
  TGI: 3.07 µM
[18]
  GI50: 1.35 µM
  TGI: 3.48 µM
[19]
  GI50: 0.884 µM
  TGI: 2.32 µM
[20]
  GI50: 3.04 µM
  TGI: 12.4 µM
[21]
  GI50: 1.01 µM
  TGI: 2.29 µM
[22]
  GI50: 1.26 µM
  TGI: 2.53 µM
[23]
  GI50: 1.7 µM
  TGI: 5.51 µM
[24]
  GI50: 0.611 µM
  TGI: 2.3 µM
[25]
  GI50: 1.55 µM
  TGI: 3.07 µM
[26]
  GI50: 2.23 µM
  TGI: 5.07 µM
[27]
  GI50: 0.296 µM
  TGI: 10.1 µM
[28]
  GI50: 1.76 µM
  TGI: 3.78 µM
[29]
  GI50: 0.589 µM
  TGI: 2.05 µM
[30]
  GI50: 1.58 µM
  TGI: 3.17 µM
[31]
  GI50: 1.51 µM
  TGI: 2.94 µM
[32]
  GI50: 0.315 µM
  TGI: 1.58 µM
[33]
  GI50: 2.17 µM
  TGI: 7.09 µM
[34]
  GI50: 0.752 µM
  TGI: 3.57 µM
[35]
  GI50: 0.619 µM
  TGI: 1.98 µM
[36]
  GI50: 2.75 µM
  TGI: 11.3 µM
[37]
  GI50: 1.45 µM
  TGI: 3.35 µM
[38]
  GI50: 5.87 µM
  TGI: 18.5 µM
[39]
  GI50: 0.292 µM
  TGI: 1.53 µM
[40]
  GI50: 1.36 µM
  TGI: 3.12 µM
[41]
  GI50: 1.55 µM
  TGI: 2.93 µM
[42]
  GI50: 0.701 µM
  TGI: 2.05 µM
[43]
  GI50: 1.31 µM
  TGI: 2.64 µM
[44]
  GI50: 1.72 µM
  TGI: 3.37 µM
[45]
  GI50: 1.38 µM
  TGI: 2.68 µM
[46]
  GI50: 1.49 µM
  TGI: 3.07 µM
[47]
  GI50: 1.66 µM
  TGI: 3.13 µM
[48]
  GI50: 1.35 µM
  TGI: 2.81 µM
[49]
  GI50: 1.11 µM
  TGI: 2.58 µM
[50]
  GI50: 1.44 µM
  TGI: 2.9 µM
[51]
  GI50: 1.6 µM
  TGI: 3.29 µM
[52]
  GI50: 1.66 µM
  TGI: 3.35 µM
[53]
  GI50: 1.29 µM
  TGI: 2.92 µM
[54]
  GI50: 1.58 µM
  TGI: 3.05 µM
[55]
  GI50: 0.461 µM
  TGI: 1.87 µM
[56]
  GI50: 1.63 µM
  TGI: 3.02 µM

## c1ccc(-c2cn3nc(N4CCOCC4)sc3n2)cc1
[1]
  TGI: > 100 µM
[2]
  TGI: > 100 µM
[57]
  TGI: > 100 µM
[3]
  TGI: > 100 µM
[4]
  TGI: > 100 µM
[5]
  TGI: > 100 µM
[6]
  TGI: > 100 µM
[7]
  TGI: > 100 µM
[8]
  TGI: > 100 µM
[9]
  TGI: > 100 µM
[10]
  TGI: > 100 µM
[11]
  TGI: > 100 µM
[12]
  TGI: > 100 µM
[13]
  TGI: > 100 µM
[14]
  TGI: > 100 µM
[16]
  TGI: > 100 µM
[17]
  TGI: > 100 µM
[18]
  TGI: > 100 µM
[19]
  TGI: > 100 µM
[20]
  TGI: > 100 µM
[21]
  TGI: > 100 µM
[22]
  TGI: > 100 µM
[23]
  TGI: > 100 µM
[24]
  TGI: > 100 µM
[25]
  TGI: > 100 µM
[26]
  TGI: > 100 µM
[28]
  TGI: > 100 µM
[29]
  TGI: > 100 µM
[31]
  TGI: > 100 µM
[32]
  TGI: > 100 µM
[33]
  TGI: > 100 µM
[34]
  TGI: > 100 µM
[35]
  TGI: > 100 µM
[36]
  TGI: > 100 µM
[37]
  TGI: > 100 µM
[38]
  TGI: > 100 µM
[39]
  TGI: > 100 µM
[40]
  TGI: > 100 µM
[58]
  TGI: > 100 µM
[41]
  TGI: > 100 µM
[43]
  TGI: > 100 µM
[44]
  TGI: > 100 µM
[45]
  TGI: > 100 µM
[46]
  TGI: > 100 µM
[48]
  TGI: > 100 µM
[49]
  TGI: > 100 µM
[50]
  TGI: > 100 µM
[51]
  TGI: > 100 µM
[52]
  TGI: > 100 µM
[53]
  TGI: > 100 µM
[54]
  TGI: > 100 µM
[55]
  TGI: > 100 µM
[56]
  TGI: > 100 µM

## N=C(N)c1ccc(-c2ccc(-c3ccc(F)cc3)s2)nc1
[1]
  GI50: 2.13 µM
  TGI: 5.52 µM
[2]
  GI50: 1.78 µM
  TGI: 3.61 µM
[3]
  GI50: 2.18 µM
  TGI: 6.68 µM
[4]
  GI50: 2.11 µM
  TGI: 4.78 µM
[5]
  GI50: 1.88 µM
  TGI: 3.68 µM
[6]
  GI50: 3.84 µM
  TGI: 16.9 µM
[8]
  GI50: 2.39 µM
  TGI: 6.21 µM
[9]
  GI50: 1.71 µM
  TGI: 3.21 µM
[10]
  GI50: 1.81 µM
  TGI: 3.2 µM
[11]
  GI50: 1.8 µM
  TGI: 3.24 µM
[13]
  GI50: 2.23 µM
  TGI: 6.04 µM
[14]
  GI50: 2.51 µM
  TGI: 6.98 µM
[16]
  GI50: 1.71 µM
  TGI: 3.17 µM
[17]
  GI50: 1.79 µM
  TGI: 3.69 µM
[19]
  GI50: 2.12 µM
  TGI: 4.76 µM
[20]
  GI50: 2.72 µM
  TGI: 6.86 µM
[21]
  GI50: 1.77 µM
  TGI: 3.26 µM
[22]
  GI50: 1.55 µM
  TGI: 4.05 µM
[24]
  GI50: 1.84 µM
  TGI: 3.65 µM
[25]
  GI50: 10.3 µM
  TGI: 32.9 µM
[26]
  GI50: 1.92 µM
  TGI: 3.57 µM
[28]
  GI50: 1.73 µM
  TGI: 3.3 µM
[29]
  GI50: 2.05 µM
  TGI: 4.63 µM
[30]
  GI50: 2.02 µM
  TGI: 8.58 µM
[31]
  GI50: 1.67 µM
  TGI: 3.06 µM
[32]
  GI50: 2.46 µM
  TGI: 6.06 µM
[33]
  GI50: 2.72 µM
  TGI: 8.89 µM
[34]
  GI50: 2.68 µM
  TGI: 6.83 µM
[37]
  GI50: 1.87 µM
  TGI: 3.67 µM
[38]
  GI50: 11 µM
  TGI: 28.9 µM
[39]
  GI50: 0.374 µM
  TGI: 1.75 µM
[58]
  GI50: 1.46 µM
  TGI: 3.38 µM
[43]
  GI50: 1.94 µM
  TGI: 4.24 µM
[44]
  GI50: 2.13 µM
  TGI: 4.45 µM
[45]
  GI50: 1.53 µM
  TGI: 2.87 µM
[46]
  GI50: 1.73 µM
  TGI: 3.26 µM
[47]
  GI50: 1.75 µM
  TGI: 3.2 µM
[48]
  GI50: 3.23 µM
  TGI: 9.95 µM
[49]
  GI50: 1.83 µM
  TGI: 3.27 µM
[50]
  GI50: 2.2 µM
  TGI: 5.12 µM
[51]
  GI50: 1.85 µM
  TGI: 3.63 µM
[52]
  GI50: 2.87 µM
  TGI: 8.99 µM
[53]
  GI50: 5.11 µM
  TGI: 30.1 µM
[54]
  GI50: 4.26 µM
  TGI: 22.9 µM
[55]
  GI50: 1.84 µM
  TGI: 3.56 µM
